Like-named read-outs stand apart in the source and are kept apart here.
What was measured:
[1] = target: T1, Recombinant His-tagged NAMPT (Homo sapiens, UniProt P43490); assay: Biochemical inhibition assay: NAMPT enzymatic reaction, NMN quantified by mass spectrometry; conditions: 33 nM NAMPT, 1 μM NAM, 100 μM PRPP, 30 minutes at room temperature, read-out: Biochem IC50
T1 construct: His; host or cells: E. coli
Outline: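 Reaction 30 min at room temperature with 1 μM NAM, 100 μM PRPP, 2.5 mM ATP (final), quenched with formic acid. NMN quantified by RapidFire electrospray MS, normalized to L-cystathionine; IC50 from percent inhibition versus DMSO.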

A2780 cells = assay: In-vitro cell proliferation assay (SRB, 72 hours); type: cell-based; conditions: sulforhodamine B (SRB) assay
Outline: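 Viable cells measured by TCA fixation and SRB staining, absorbance 570 nm; % inhibition vs DMSO control after media-only background subtraction, interpolated between two bracketing concentrations.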

T1 sequence (P43490 whole entry): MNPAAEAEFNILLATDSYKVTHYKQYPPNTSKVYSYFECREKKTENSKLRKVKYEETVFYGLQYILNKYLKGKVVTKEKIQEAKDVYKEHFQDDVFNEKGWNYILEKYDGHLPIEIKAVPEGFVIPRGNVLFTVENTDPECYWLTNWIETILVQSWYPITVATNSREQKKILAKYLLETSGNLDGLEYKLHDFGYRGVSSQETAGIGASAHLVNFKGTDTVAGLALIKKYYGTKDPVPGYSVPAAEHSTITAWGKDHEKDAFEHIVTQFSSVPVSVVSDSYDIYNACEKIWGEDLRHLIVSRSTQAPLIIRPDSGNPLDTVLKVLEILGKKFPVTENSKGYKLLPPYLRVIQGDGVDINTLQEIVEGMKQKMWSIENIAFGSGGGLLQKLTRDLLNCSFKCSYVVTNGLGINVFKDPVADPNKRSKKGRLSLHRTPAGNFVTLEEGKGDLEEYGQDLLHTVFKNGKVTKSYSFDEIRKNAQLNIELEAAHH

Structure (SMILES) | IC50 ([1]; 2.5 mM ATP) | IC50 (A2780 cells; Homo sapiens) | IC50 ([1]; […] ATP) | IC50 (A2780 cells)
O=C(NCCCCCCOc1ccc(Cl)cc1)c1ccc2ncccc2c1 [N-[6-(4-chlorophenoxy)hexyl]quinoline-6-carboxamide] | 25.9 nM | 9890 nM | – | –
O=C(NCCCCC1CCN(S(=O)(=O)c2cccc(OC(F)(F)F)c2)CC1)c1cc2cnccc2[nH]1 [N-[4-(1-{[3-(trifluoromethoxy)benzene]sulfonyl}piperidin-4-yl)butyl]-1H-pyrrolo[3,2-c]pyridine-2-carboxamide] | – | – | 77.8 nM | 18.7 nM
O=C(NCCCCC1CCN(C(=O)c2ccoc2)CC1)c1cc2ccncc2s1 [N-(4-{1-[(furan-3-yl)carbonyl]piperidin-4-yl}butyl)thieno[2,3-c]pyridine-2-carboxamide] | 4 nM | 6 nM | – | –
O=C(NCCCCN1CCN(C(=O)c2cccc(Cl)c2)CC1)c1cc2cnccc2[nH]1 [N-(4-{4-[(3-chlorophenyl)carbonyl]piperazin-1-yl}butyl)-1H-pyrrolo[3,2-c]pyridine-2-carboxamide] | 106 nM | 347 nM | – | –
Cc1ncsc1C(=O)N1CCC(CCCCNC(=O)c2cc3ccncc3s2)CC1 [N-(4-{1-[(4-methyl-1,3-thiazol-5-yl)carbonyl]piperidin-4-yl}butyl)thieno[2,3-c]pyridine-2-carboxamide] | 5.3 nM | 0.8 nM | – | –
O=C(NCCCOC1CCN(C(=O)c2ccccc2F)CC1)c1cc2cnccc2[nH]1 [N-(3-((1-(2-fluorobenzoyl)piperidin-4-yl)oxy)propyl)-1H-pyrrolo[3,2-c]pyridine-2-carboxamide] | 35 nM | 177 nM | – | –
O=C(NCCCCC1CCN(C(=O)c2ccc3c(c2)OCO3)CC1)c1cc2ccncc2s1 [N-(4-{1-[(2H-1,3-benzodioxol-5-yl)carbonyl]piperidin-4-yl}butyl)thieno[2,3-c]pyridine-2-carboxamide] | 21.1 nM | 100 to 1000 nM | – | –
O=C(NCCCCC1CCN(C(=O)c2c(F)cccc2F)CC1)c1cc2cnccc2[nH]1 [N-(4-{1-[(2,6-difluorophenyl)carbonyl]piperidin-4-yl}butyl)-1H-pyrrolo[3,2-c]pyridine-2-carboxamide] | 7.3 nM | 1.4 nM | – | –
Cn1cc(CC(=O)N2CCC(CCCCNC(=O)c3ccc4nccn4c3)CC2)c2ccccc21 [N-(4-{1-[2-(1-methyl-1H-indol-3-yl)acetyl]piperidin-4-yl}butyl)imidazo[1,2-a]pyridine-6-carboxamide] | 29.5 nM | 21.3 nM | – | –
O=C(NCCCCC1CCN(C(=O)c2ccc(Cl)cc2Cl)CC1)c1ccc2nccn2c1 [N-(4-{1-[(2,4-dichlorophenyl)carbonyl]piperidin-4-yl}butyl)imidazo[1,2-a]pyridine-6-carboxamide] | 35.7 nM | 14.4 nM | – | –
O=C(NCCCCC1CCN(C(=O)c2ccc(F)cn2)CC1)c1cc2ccncc2s1 [N-(4-{1-[(5-fluoropyridin-2-yl)carbonyl]piperidin-4-yl}butyl)thieno[2,3-c]pyridine-2-carboxamide] | 26.5 nM | 100 to 1000 nM | – | –
O=C(NCCCCC1CCN(C(=O)c2ccc(Cl)cc2Cl)CC1)c1cc2ccncc2s1 [N-(4-{1-[(2,4-dichlorophenyl)carbonyl]piperidin-4-yl}butyl)thieno[2,3-c]pyridine-2-carboxamide] | 41 nM | 86.1 nM | – | –
O=C(NCCCCC1CCN(C(=O)c2ccc(C(F)(F)F)cc2)CC1)c1cc2cnccc2[nH]1 [N-[4-(1-{[4-(trifluoromethyl)phenyl]carbonyl}piperidin-4-yl)butyl]-1H-pyrrolo[3,2-c]pyridine-2-carboxamide] | 164 nM | 38.1 nM | – | –
O=C(NCCCCC1CCN(C(=O)c2ccc(Cl)cc2)CC1)c1cc2ccncc2s1 [N-(4-{1-[(4-chlorophenyl)carbonyl]piperidin-4-yl}butyl)thieno[2,3-c]pyridine-2-carboxamide] | 22.8 nM | 1000 to 10000 nM | – | –
Cc1nc(CC(=O)N2CCC(CCCCNC(=O)c3cc4cnccc4[nH]3)CC2)cs1 [N-(4-{1-[2-(2-methyl-1,3-thiazol-4-yl)acetyl]piperidin-4-yl}butyl)-1H-pyrrolo[3,2-c]pyridine-2-carboxamide] | 49.4 nM | 13.9 nM | – | –
O=C(NCCCCC1CCN(S(=O)(=O)c2cccc(Cl)c2)CC1)c1cc2cnccc2[nH]1 [N-(4-{1-[(3-chlorobenzene)sulfonyl]piperidin-4-yl}butyl)-1H-pyrrolo[3,2-c]pyridine-2-carboxamide] | 38.8 nM | 27.7 nM | – | –
Cc1nc(C)c(C(=O)N2CCC(CCCCNC(=O)c3ccc4nccn4c3)CC2)s1 [N-(4-{1-[(dimethyl-1,3-thiazol-5-yl)carbonyl]piperidin-4-yl}butyl)imidazo[1,2-a]pyridine-6-carboxamide] | 24.1 nM | 6.6 nM | – | –

Structure (SMILES) | IC50 ([1]; 2.5 mM ATP) | IC50 (A2780 cells; Homo sapiens) | IC50 ([1]; […] ATP) | IC50 (A2780 cells)
COc1ccc(Cl)cc1C(=O)N1CCC(CCCCNC(=O)c2ccc3nccn3c2)CC1 [N-(4-{1-[(5-chloro-2-methoxyphenyl)carbonyl]piperidin-4-yl}butyl)imidazo[1,2-a]pyridine-6-carboxamide] | 10.5 nM | 3.1 nM | – | –
Cn1ccnc1C(=O)N1CCC(CCCCNC(=O)c2cc3cnccc3[nH]2)CC1 [N-(4-{1-[(1-methyl-1H-imidazol-2-yl)carbonyl]piperidin-4-yl}butyl)-1H-pyrrolo[3,2-c]pyridine-2-carboxamide] | 76.5 nM | 23.6 nM | – | –
O=C(NCCCCC1CCN(C(=O)c2ccc(OC(F)(F)F)cc2)CC1)c1cc2cnccc2[nH]1 [N-[4-(1-{[4-(trifluoromethoxy)phenyl]carbonyl}piperidin-4-yl)butyl]-1H-pyrrolo[3,2-c]pyridine-2-carboxamide] | 145 nM | 12.7 nM | – | –
O=C(NCCCCC1CCN(C(=O)c2cc(Cl)ccc2Cl)CC1)c1cc2ccncc2s1 [N-(4-{1-[(2,5-dichlorophenyl)carbonyl]piperidin-4-yl}butyl)thieno[2,3-c]pyridine-2-carboxamide] | 16 nM | 7.1 nM | – | –
COc1cccc(C(=O)N2CCC(CCCCNC(=O)c3cc4ccncc4s3)CC2)c1 [N-(4-{1-[(3-methoxyphenyl)carbonyl]piperidin-4-yl}butyl)thieno[2,3-c]pyridine-2-carboxamide] | 26.1 nM | 11 nM | – | –
CSc1ncccc1C(=O)N1CCC(CCCCNC(=O)c2ccc3nccn3c2)CC1 [N-[4-(1-{[2-(methylsulfanyl)pyridin-3-yl]carbonyl}piperidin-4-yl)butyl]imidazo[1,2-a]pyridine-6-carboxamide] | 5.5 nM | 0.7 nM | – | –
O=C(NCCCCC1CCN(C(=O)c2ccccc2F)CC1)c1cc2cnccc2[nH]1 [N-(4-{1-[(2-fluorophenyl)carbonyl]piperidin-4-yl}butyl)-1H-pyrrolo[3,2-c]pyridine-2-carboxamide] | 7.5 nM | 0.5 nM | – | –
CC(C)c1ccc(C(=O)N2CCC(CCCCNC(=O)c3ccc4nccn4c3)CC2)cn1 [N-[4-(1-{[6-(propan-2-yl)pyridin-3-yl]carbonyl}piperidin-4-yl)butyl]imidazo[1,2-a]pyridine-6-carboxamide] | 38.7 nM | 26.1 nM | – | –
O=C(NCCCCC1CCN(C(=O)c2ccc(C(F)(F)F)cc2)CC1)c1cc2ccncc2s1 [N-[4-(1-{[4-(trifluoromethyl)phenyl]carbonyl}piperidin-4-yl)butyl]thieno[2,3-c]pyridine-2-carboxamide] | 305 nM | 1000 nM | – | –
O=C(NCCCCC1CCN(C(=O)c2cc3ccccc3s2)CC1)c1ccc2nccn2c1 [N-(4-{1-[(1-benzothiophen-2-yl)carbonyl]piperidin-4-yl}butyl)imidazo[1,2-a]pyridine-6-carboxamide] | 25.8 nM | 71.8 nM | – | –
O=C(NCCCCC1CCN(C(=O)c2cc(Cl)cc(Cl)c2)CC1)c1ccc2nccn2c1 [N-(4-{1-[(3,5-dichlorophenyl)carbonyl]piperidin-4-yl}butyl)imidazo[1,2-a]pyridine-6-carboxamide] | 61.6 nM | 32.9 nM | – | –
O=C(NCCCCC1CCN(C(=O)c2cc(F)ccc2F)CC1)c1ccc2nccn2c1 [N-(4-{1-[(2,5-difluorophenyl)carbonyl]piperidin-4-yl}butyl)imidazo[1,2-a]pyridine-6-carboxamide] | 5 nM | 5 nM | – | –
O=C(NCCCCC1CCN(C(=O)c2ccc(F)c(F)c2)CC1)c1cc2cnccc2[nH]1 [N-(4-{1-[(3,4-difluorophenyl)carbonyl]piperidin-4-yl}butyl)-1H-pyrrolo[3,2-c]pyridine-2-carboxamide] | 56 nM | 20.6 nM | – | –
O=C(NCCCCC1CCN(S(=O)(=O)c2ccc(C(F)(F)F)nc2)CC1)c1cc2cnccc2[nH]1 [N-(4-{1-[6-(trifluoromethyl)pyridine-3-sulfonyl]piperidin-4-yl}butyl)-1H-pyrrolo[3,2-c]pyridine-2-carboxamide] | 81.5 nM | 29.8 nM | – | –
Cc1nc(CC(=O)N2CCC(CCCCNC(=O)c3cc4ccncc4s3)CC2)cs1 [N-(4-{1-[2-(2-methyl-1,3-thiazol-4-yl)acetyl]piperidin-4-yl}butyl)thieno[2,3-c]pyridine-2-carboxamide] | 13.5 nM | 28.2 nM | – | –
COc1cccc(C(=O)N2CCN(CCCCNC(=O)c3cc4cnccc4[nH]3)CC2)c1 [N-(4-{4-[(3-methoxyphenyl)carbonyl]piperazin-1-yl}butyl)-1H-pyrrolo[3,2-c]pyridine-2-carboxamide] | 436 nM | 855 nM | – | –
O=C(NCCCCC1CCN(C(=O)c2ccc3cc[nH]c3c2)CC1)c1cc2cnccc2[nH]1 [N-(4-{1-[(1H-indol-6-yl)carbonyl]piperidin-4-yl}butyl)-1H-pyrrolo[3,2-c]pyridine-2-carboxamide] | 52.9 nM | 13.4 nM | – | –
